# Measured values as given in US10428044B2, “3-amino-1,5,6,7-tetrahydro-4H-indol-4-ones” (Bayer Pharma Aktiengesellschaft, priority 2014, dated 2019).
# Molecular target: (recombinant) catalytic domain of human Bub1 (amino acids 704-1085) (Homo sapiens (Human), UniProt O43683)
# Assay: Bub1 kinase assay (TR-FRET)
# Format: biochemical
# Conditions: ATP 10 μM final, peptide substrate 1 μM final, 60 min at 22° C., read-out: Biological Assay: Bub1 kinase assay median IC50
# Method in brief: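 Compounds were serially diluted 1:3.4 from 2 mM DMSO stocks and incubated with the enzyme reaction for 60 min at 22° C. The reaction was stopped with EDTA, and biotinylated peptide phosphorylation was read by TR-FRET using Eu anti-mouse IgG, anti-phosphoserine antibody and streptavidin-XL665. IC50 was fitted by 4-parameter logistic to inhibition normalized to no-inhibitor and no-enzyme controls.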
# Sequence of (recombinant) catalytic domain of human Bub1 (amino acids 704-1085) (O43683 704-1085): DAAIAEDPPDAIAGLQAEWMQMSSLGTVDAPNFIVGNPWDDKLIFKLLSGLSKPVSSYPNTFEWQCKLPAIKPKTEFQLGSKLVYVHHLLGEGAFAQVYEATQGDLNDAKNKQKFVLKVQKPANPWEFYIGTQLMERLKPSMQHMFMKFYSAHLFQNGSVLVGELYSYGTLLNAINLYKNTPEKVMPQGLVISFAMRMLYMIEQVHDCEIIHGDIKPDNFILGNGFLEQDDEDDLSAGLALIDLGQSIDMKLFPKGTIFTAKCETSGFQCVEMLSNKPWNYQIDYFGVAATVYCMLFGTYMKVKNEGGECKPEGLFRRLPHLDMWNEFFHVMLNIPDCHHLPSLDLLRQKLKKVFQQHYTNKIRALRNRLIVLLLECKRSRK
row,IC50 [nM],SMILES
1,3450,"O=C1CCCc2[nH]c(-c3ccnc(NC(=O)C4CNC4)c3)c(Nc3ccccc3)c21 [Example 296, N-{4-[4-oxo-3-(phenylamino)-4,5,6,7-tetrahydro-1H-indol-2-yl]pyridin-2-yl}azetidine-3-carboxamide]"
2,13.5,"O=C1CCCc2[nH]c(-c3ccnc(NC(=O)C4CC4)c3)c(Nc3ccccc3)c21 [Example 48, N-{4-[4-oxo-3-(phenylamino)-4,5,6,7-tetrahydro-1H-indol-2-yl]pyridin-2-yl}cyclopropanecarboxamide]"
3,39.4,"O=C(COc1ccccc1F)Nc1cc(-c2[nH]c3c(c2Nc2ccccc2)C(=O)CCC3)ccn1 [Example 339, 2-(2-fluorophenoxy)-N-{4-[4-oxo-3-(phenylamino)-4,5,6,7-tetrahydro-1H-indol-2-yl]pyridin-2-yl}acetamide]"
4,23.6,"O=C1CCCc2[nH]c(-c3ccnc(NC(=O)C4CC4(F)F)c3)c(Nc3ccccc3)c21 (racemic) [Example 260, 2,2-difluoro-N-{4-[4-oxo-3-(phenylamino)-4,5,6,7-tetrahydro-1H-indol-2-yl]pyridin-2-yl}cyclopropanecarboxamide]"
5,34.7,"CC1(C)CC1C(=O)Nc1cc(-c2[nH]c3c(c2Nc2ccccc2)C(=O)CCC3)ccn1 (centres unmarked) [Example 232, 2,2-dimethyl-N-{4-[4-oxo-3-(phenylamino)-4,5,6,7-tetrahydro-1H-indol-2-yl]pyridin-2-yl}cyclopropanecarboxamide]"
6,13.9,"O=C(Nc1cc(-c2[nH]c3c(c2Nc2ccccc2)C(=O)CCC3)ccn1)c1ccccc1F [Example 264, 2-fluoro-N-{4-[4-oxo-3-(phenylamino)-4,5,6,7-tetrahydro-1H-indol-2-yl]pyridin-2-yl}benzamide]"
7,73.3,"CCCOc1cnccc1-c1[nH]c2c(c1Nc1ccccc1)C(=O)CCC2 [Example 456, 3-(phenylamino)-2-(3-propoxypyridin-4-yl)-1,5,6,7-tetrahydro-4H-indol-4-one]"
8,50.6,"CC1(C)CC(=O)c2c(Nc3ccccc3)c(-c3ccncc3)n(CC(F)F)c2C1 [Example 188, 1-(2,2-difluoroethyl)-6,6-dimethyl-3-(phenylamino)-2-(pyridin-4-yl)-1,5,6,7-tetrahydro-4H-indol-4-one]"
9,7.83,"CCCOCC(=O)Nc1cc(-c2[nH]c3c(c2Nc2ccccc2)C(=O)CCC3)ccn1 [Example 330, N-{4-[4-oxo-3-(phenylamino)-4,5,6,7-tetrahydro-1H-indol-2-yl]pyridin-2-yl}-2-propoxyacetamide]"
10,220,"NC(=O)CCn1c2c(c(Nc3ccccc3)c1-c1ccncc1)C(=O)CCC2 [Example 174, 3-[4-oxo-3-(phenylamino)-2-(pyridin-4-yl)-4,5,6,7-tetrahydro-1H-indol-1-yl]propanamide]"
11,19.8,"O=C(COc1ccsc1)Nc1cc(-c2[nH]c3c(c2Nc2ccccc2)C(=O)CCC3)ccn1 [Example 344, N-{4-[4-oxo-3-(phenylamino)-4,5,6,7-tetrahydro-1H-indol-2-yl]pyridin-2-yl}-2-(thiophen-3-yloxy)acetamide]"
12,65.4,COC(C)C(=O)Nc1cc(-c2[nH]c3c(c2Nc2ccccc2)C(=O)CCC3)ccn1 (centres unmarked) [Example 329]
13,280,"CC(C)(O)C(=O)Nc1cc(-c2[nH]c3c(c2Nc2ccccc2)C(=O)CCC3)ccn1 [Example 327, 2-hydroxy-2-methyl-N-{4-[4-oxo-3-(phenylamino)-4,5,6,7-tetrahydro-1H-indol-2-yl]pyridin-2-yl}propanamide]"
14,19.1,"O=C(Nc1cc(-c2[nH]c3c(c2Nc2ccccc2)C(=O)CCC3)ccn1)c1cccc(F)c1 [Example 265, 3-fluoro-N-{4-[4-oxo-3-(phenylamino)-4,5,6,7-tetrahydro-1H-indol-2-yl]pyridin-2-yl}benzamide]"

# The remaining lines, values behind:
row,SMILES,IC50 [nM]
1,"CC1(C)CC(=O)c2c([nH]c(-c3ccncc3)c2Nc2ccc(Oc3ccccc3)cc2)C1 [Example 514, 6,6-dimethyl-3-[(4-phenoxyphenyl)amino]-2-(pyridin-4-yl)-1,5,6,7-tetrahydro-4H-indol-4-one]",> 20000
2,"CC1(C)CC(=O)c2c([nH]c(-c3cc(Cl)nc(Cl)c3)c2Nc2ccccc2)C1 [Example 216, 2-(2,6-dichloropyridin-4-yl)-6,6-dimethyl-3-(phenylamino)-1,5,6,7-tetrahydro-4H-indol-4-one]",> 20000
3,"CC1(C)CC(=O)c2c([nH]c(-c3ccncc3)c2Nc2cccc(-c3ccccc3)n2)C1 [Example 423, 6,6-dimethyl-3-[(6-phenylpyridin-2-yl)amino]-2-(pyridin-4-yl)-1,5,6,7-tetrahydro-4H-indol-4-one]",26.8
4,"COc1ccc(Nc2c(-c3ccncc3)[nH]c3c2C(=O)CC(C)(C)C3)cc1OC [Example 58, 3-[(3,4-dimethoxyphenyl)amino]-6,6-dimethyl-2-(pyridin-4-yl)-1,5,6,7-tetrahydro-4H-indol-4-one]",20000
5,"CC1(C)CC(=O)c2c([nH]c(-c3ccncc3O)c2Nc2ccccc2)C1 [Example 464, 3-anilino-2-(3-hydroxypyridin-4-yl)-6,6-dimethyl-1,5,6,7-tetrahydro-4H-indol-4-one]",58.9
6,"CCC(=O)Nc1cccc(Nc2c(-c3ccncc3)[nH]c3c2C(=O)CC(C)(C)C3)c1 [Example 98, N-(3-{[6,6-dimethyl-4-oxo-2-(pyridin-4-yl)-4,5,6,7-tetrahydro-1H-indol-3-yl]amino}phenyl)propanamide]",1540
7,"CC1(C)CC(=O)c2c([nH]c(-c3ccncc3)c2Nc2ccc3[nH]ncc3c2)C1 [Example 100, 3-(1H-indazol-5-ylamino)-6,6-dimethyl-2-(pyridin-4-yl)-1,5,6,7-tetrahydro-4H-indol-4-one]",95.2
8,"COc1ccccc1Nc1c(-c2ccncc2)[nH]c2c1C(=O)CC(C)(C)C2 [Example 124, 3-[(2-methoxyphenyl)amino]-6,6-dimethyl-2-(pyridin-4-yl)-1,5,6,7-tetrahydro-4H-indol-4-one]",154
9,"CC1(C)CC(=O)c2c([nH]c(-c3ccncc3)c2Nc2cc(F)ccc2CO)C1 [Example 487, 3-{[5-fluoro-2-(hydroxymethyl)phenyl]amino}-6,6-dimethyl-2-(pyridin-4-yl)-1,5,6,7-tetrahydro-4H-indol-4-one]",3.35
10,"CC1(C)CC(=O)c2c([nH]c(-c3ccncc3Br)c2Nc2ccccc2)C1 [Example 199, 2-(3-bromopyridin-4-yl)-6,6-dimethyl-3-(phenylamino)-1,5,6,7-tetrahydro-4H-indol-4-one]",12
11,"O=C1CCCc2[nH]c(-c3ccnc(NC(=O)C4CC4)c3)c(Nc3ccc(F)c(F)c3)c21 [Example 316, N-(4-{3-[(3,4-difluorophenyl)amino]-4-oxo-4,5,6,7-tetrahydro-1H-indol-2-yl}pyridin-2-yl)cyclopropanecarboxamide]",82.3
12,"CC(C)(C)NC(=S)Nc1cc(-c2[nH]c3c(c2Nc2ccccc2)C(=O)CCC3)ccn1 [Example 396, 1-tert-butyl-3-{4-[4-oxo-3-(phenylamino)-4,5,6,7-tetrahydro-1H-indol-2-yl]pyridin-2-yl}thiourea]",2460
13,"CC1(C)CC(=O)c2c([nH]c(-c3ccncc3)c2Nc2ccc3cc[nH]c3c2)C1 [Example 68, 3-(1H-indol-6-ylamino)-6,6-dimethyl-2-(pyridin-4-yl)-1,5,6,7-tetrahydro-4H-indol-4-one]",84.2
14,"CC1(C)CC(=O)c2c([nH]c(-c3ccnc(N4CCOCC4)c3)c2Nc2ccccc2)C1 [Example 127, 6,6-dimethyl-2-[2-(morpholin-4-yl)pyridin-4-yl]-3-(phenylamino)-1,5,6,7-tetrahydro-4H-indol-4-one]",7750
15,"CCOc1cc(F)ccc1Nc1c(-c2ccncc2)[nH]c2c1C(=O)CC(C)(C)C2 [Example 125, 3-[(2-ethoxy-4-fluorophenyl)amino]-6,6-dimethyl-2-(pyridin-4-yl)-1,5,6,7-tetrahydro-4H-indol-4-one]",454
16,"CC1(C)CC(=O)c2c([nH]c(-c3ccncc3)c2Nc2cccc(F)c2CO)C1 [Example 486, 3-{[3-fluoro-2-(hydroxymethyl)phenyl]amino}-6,6-dimethyl-2-(pyridin-4-yl)-1,5,6,7-tetrahydro-4H-indol-4-one]",3.45
17,"CC1(C)CC(=O)c2c([nH]c(-c3ccnc(NCCC(F)(F)F)c3)c2Nc2ccccc2)C1 [Example 362, 6,6-dimethyl-3-(phenylamino)-2-{2-[(3,3,3-trifluoropropyl)amino]pyridin-4-yl}-1,5,6,7-tetrahydro-4H-indol-4-one]",392
18,"O=C1CCCc2[nH]c(-c3ccnc(N(C(=O)C4CC4)C(=O)C4CC4)c3)c(Nc3ccccc3)c21 [Example 163, N-(cyclopropylcarbonyl)-N-{4-[4-oxo-3-(phenylamino)-4,5,6,7-tetrahydro-1H-indol-2-yl]pyridin-2-yl}cyclopropanecarboxamide]",126
19,"CC1(C)CC(=O)c2c([nH]c(-c3ccnc(NCCc4ccccc4)c3)c2Nc2ccccc2)C1 [Example 498, 6,6-dimethyl-3-(phenylamino)-2-{2-[(2-phenylethyl)amino]pyridin-4-yl}-1,5,6,7-tetrahydro-4H-indol-4-one]",1260
20,"CC(C)(C)OC(=O)N1CC(C(=O)Nc2cc(-c3[nH]c4c(c3Nc3ccccc3)C(=O)CCC4)ccn2)C1 [Example 295, tert-butyl 3-({4-[4-oxo-3-(phenylamino)-4,5,6,7-tetrahydro-1H-indol-2-yl]pyridin-2-yl}carbamoyl)azetidine-1-carboxylate]",38
21,"CC1(C)CC(=O)c2c([nH]c(-c3ccncc3)c2Nc2ccc(Cl)cc2)C1 [Example 10, 3-[(4-chlorophenyl)amino]-6,6-dimethyl-2-(pyridin-4-yl)-1,5,6,7-tetrahydro-4H-indol-4-one]",12.5
